Assay results as given in patent US20090233917A1, “Stroke recovery” (priority 2006, published 2009).

Tested on: healthy human volunteers
Assay: Pharmacokinetic clinical study in healthy human volunteers
Type: in vivo
Experimental: Seven healthy human volunteers were administered orally 400 mg t.i.d. dosing (1200 mg/day) in a double-blinded and placebo controlled clinical study.

[O-][n+]1cccc(/C(Cl)=N/OC[C@H](O)CN2CCCCC2)c1 [arimoclomol, N-[2-hydroxy-3-(1-piperidinyl)propoxy]-pyridine-1-oxide-3-carboximidoyl chloride]
clinical abnormalities or changes (ECGs, vital signs, clinical chemistry, physical examination, body weight) (400 mg t.i.d. (1200 mg/day) orally): No clinical abnormalities or changes were observed | level of exposure of the 200 mg/kg/day rat PK study in humans (400 mg t.i.d. orally, AUC and Cmax, FIG. 15): can be safely achieved in human volunteers
